# Results from publication PMC9603010 (ACS Bio & Med Chem Au, 2022).
# Where a name gives a salt, the structure may show the parent alone.
# What was measured:
# HEK293T cells = conditions: 48 h, multiple concentrations
# [1] = system: SARS-CoV-2 (USA-WA1/2020); format: cell-based
SMILES,impact on cell viability (HEK293T cells),reduction of the number of infected cells compared to vehicle [1]
"NC(CO)C(=O)NNCc1ccc(O)c(O)c1O (stereo not drawn) [benserazide, reference compound]",without significant impact on cell viability,
O=C(O[C@@H]1Cc2c(O)cc(O)cc2O[C@@H]1c1cc(O)c(O)c(O)c1)c1cc(O)c(O)c(O)c1 [epigallocatechin gallate],without significant impact on cell viability,
"c1ccc2c(c1)OCC(C1=NCCN1)O2 (stereo not drawn) [idazoxan hydrochloride, reference compound]",,more than 90%
"c1ccc2c(c1)OCC(C1=NCCN1)O2 (stereo not drawn) [idazoxan, reference compound]",without significant impact on cell viability,
COc1c(-c2coc3cc4c(cc3c2=O)CC(O)C(C)(C)O4)ccc2c1C=CC(C)(C)O2 (stereo not drawn) [mundulone],without significant impact on cell viability,
C=C1C(=O)O[C@H]2[C@H]1CC/C(C)=C/CC[C@@]1(C)O[C@@H]21 [parthenolide],without significant impact on cell viability,
